Source: patent EP0472220A1, “Bradykinin antagonists” (SYNTEX (U.S.A.) INC., priority 1990, dated 1992)
In brackets after ≈: the same amount, converted by molar mass. Where a SMILES comes first, the peptide text is derived from it. Where no end group is shown, it is not given here. [ ]: non-standard residue; d: D form. d(hArg)(Nω,Nω'-(CH2CF3)2) = N[C@H](CCCCNC(=NCC(F)(F)F)NCC(F)(F)F)C(=O)O; Oic = O=C(O)[C@@H]1C[C@@H]2CCCC[C@@H]2N1; Arg(Me2s) = CN=C(NC)NCCC[C@H](N)C(=O)O; Arg(Et) = CCNC(=N)NCCC[C@H](N)C(=O)O; Arg(Me) = CNC(=N)NCCC[C@H](N)C(=O)O; Hyp = O=C(O)[C@@H]1C[C@@H](O)CN1; dTic = O=C(O)[C@H]1Cc2ccccc2CN1; 2Thi = N[C@@H](Cc1cccs1)C(=O)O

How the values were obtained:
[1] = in vitro
Experimental: (§1) The ability of bradykinin antagonists to resist proteolysis was determined by measuring the half-life of the analogs in plasma using HPLC. Rat blood was collected into heparin-containing tubes and centrifuged at 2000 X g for 10 minutes at 4°C to separate the plasma. Plasma samples were supplemented with bradykinin analogs (60 µM) and incubated at 37°C. At various times during incubation, an aliquot was removed and the reaction was stopped with 10% trifluoroacetic acid (TFA). The reaction mixture was applied to a 1 mL C₁₈ solid-phase extraction column (Baker) preconditioned with methanol and 10% TEA in H₂O. The analog was eluted with 3 x 100 µl of 15% acetonitrile (CH₃CN), 85% H₂O containing 0.2% TFA. The eluent was dried in a Speed-Vac concentrator (Savant) and redissolved in 300 µL of mobile phase consisting of various proportions of CH₃CN and H₂O containing 0.2% TEA depending on the analog. The sample was injected onto a Pecosphere® (Perkin-Elmer) 3 µm C₁₈ cartridge column (3.3 x 0.46 cm) and eluted with mobile phase at a flow rate of 1 ml/min using a Waters HPLC system. The analog was monitored by uv absorption at 210 nm and the results analyzed with a Hewlett-Packard integrator. Peak height was used to quantitate the amount of analog present in the sample. Plasma degradation followed first-order kinetics and the t1/2 (the time required for half the sample to be degraded) was determined graphically from a plot of log % analog remaining vs. incubation time.

[2] = in vitro; remark: listed apart in the source
Experimental: as §1

[3] = target: T1, Bradykinin Receptor (Cavia porcellus, UniProt O70526); assay: Guinea pig ileum bradykinin receptor binding assay; settings: concentration of analog that reduced the binding of 100 pM [³H]bradykinin by 50%; guinea pig ileum membrane preparation; read-out: IC₅₀
T1 construct: A 5 cm section of the distal ileum was removed, rinsed in cold saline and homogenized; from tissue; host or cells: guinea pig distal ileum, crude membrane pellet
T1 sequence (O70526 1-372): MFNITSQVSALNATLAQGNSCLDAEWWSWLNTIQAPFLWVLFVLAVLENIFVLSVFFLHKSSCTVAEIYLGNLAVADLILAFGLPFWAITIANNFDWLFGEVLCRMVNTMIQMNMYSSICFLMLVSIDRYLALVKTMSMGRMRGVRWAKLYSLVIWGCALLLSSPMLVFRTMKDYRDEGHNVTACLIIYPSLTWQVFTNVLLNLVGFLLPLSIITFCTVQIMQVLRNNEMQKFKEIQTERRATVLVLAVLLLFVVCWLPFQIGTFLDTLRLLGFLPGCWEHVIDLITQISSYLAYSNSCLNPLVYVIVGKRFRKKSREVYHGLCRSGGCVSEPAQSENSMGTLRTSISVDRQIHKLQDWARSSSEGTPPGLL
Experimental: The bradykinin analogs were assayed using a cell-free membrane receptor binding assay described by Innis et al Proc. Natl. Acad. Sci. USA 1981, 78:2630. Male Hartley guinea pigs (400-500g, Charles River) were euthanized by CO₂ asphyxiation. A 5 cm section of the distal ileum was removed, rinsed in cold saline and homogenized in 20 volumes of cold 20 mM TES buffer, pH 6.8, 1mM 1,10-phenanthroline using a Tissumizer (Tekmar) at 75% maximum speed for 12 seconds. The homogenate was centrifuged at 15,000 X g for 25 minutes at 4°C. The crude membrane pellet was washed once in 20 volumes of fresh homogenizing buffer and resuspended in assay buffer (25 mM TES buffer, pH 6.8, 1 mM dithiothreitol, 1 mM 1,10-phenanthroline, 1 µM captopril, 0.014% bacitracin and 0.1% bovine serum albumin) at 100 mL buffer per gram issue. The membrane preparation was quick-frozen in liquid N₂ and stored at -80°C.
The reaction mixture for the receptor binding assay contained bradykinin analog (1-1000 nM), 100 pM [³H]bradykinin (88 Ci/mmol) and 200 µl membrane preparation in a total volume of 500 µl assay buffer. Reactions were incubated at room temperature for 90 minutes and membrane-bound [³H]bradykinin was isolated by filtration through PEI-coated glass fiber filters. The filters were dried and counted for radioactivity in a liquid scintillation counter. Specific binding was calcuated by subtracting the nonspecific binding (determined in a parallel set of assays in the presence of 1 µM unlabeled bradykinin) from the total radioactivity bound to the filters. All incubations were performed in duplicate and the data expressed as % reduction in the specific binding of [³H]bradykinin. The IC₅₀ (the concentration of analog that reduced the binding of 100 pM [³H]bradykinin by 50%) was determined graphically from a plot of % reduction vs. log concentration.

[4] = system: Bradykinin-induced Hypotension; assay: Protection against bradykinin-induced hypotension in rats; type: in vivo, Male Sprague-Dawley rats; settings: co-administration (50-200 nmol/kg) with bradykinin (0.4 µg/kg) via carotid cannula, anesthetized rats
Experimental: Male Sprague-Dawley rats (200-300 g, Charles River) were anesthetized with 40 mg/kg ip sodium pentobarbital. The left femoral artery and vein were fitted with polyethylene cannulas (Intramedic PE-50) and the left carotid artery was fitted with a PE-20 cannula. […] The femoral arterial cannula was connected to a blood pressure transducer (Statham) and Beckman dynograph for recording systolic and diastolic pressure. The femoral venous cannula was used to administer maintenance anesthesia. […] All cannulas were filled with heparinized (40 U/mL) saline to maintain patency. Rats were placed on a 37°C water blanket and allowed to reach a stable anesthetic plane characterized by a mean arterial blood pressure of ≧90 mm Hg and a positive response to a toe pinch.

[5] = Ferreira et al. 1967; cited from earlier work
[6] = system: rat peritoneal mast cells; settings: rat mixed peritoneal cells, 15 minutes, 35°C
Experimental: Mixed peritoneal cells were recovered from 3 or 4 male Sprague-Dawley rats (350 g, Iffa-Credo, France) by intraperitoneal injection of 10 mL of 0.9% NaCl (containing 50 µg/mL heparin). After gentle massage of the abdominal cavity for 1 minute, the peritoneal cells were removed, pooled and centrifuged for 5 minutes at 300 g. After three rinses in Krebs-Ringer Buffer (KRB: 141.9 mM NaCl; 4.7 mM KCl; 1.0 mM CaCl₂, 11.2 mM MgSO₄; 2.5 mM Na₂HPO₄; 0.6 mM KH₂PO₄), the cells were counted under a microscope and diluted in the appropriate volume of KRB to achieve a cell density of about 2 x 10⁶ cells per mL. Aliquots of 0.5 mL were prewarmed with 0.4 mL Ca⁺⁺-free KRB for 5 minutes at 35°C and 0.1 mL of the appropriate solution of the drugs tested was added or its vehicle alone. 15 minutes later, the reaction was stopped by the addition of 2.5 mL ice-cold KRB and chilling on ice.
After centrifugation of the cell suspension, the histamine content of the supernatant was assayed fluorimetrically by the method of Shore et al., (Immunol. 1959, 127:182) omitting the extraction procedure (Excitation 365 nm; Emission 450 nm).
The total histamine content of the cell suspension was determined after sonication (2 minutes - 5 second pulse frequency).
The spontaneous histamine release was subtracted from all the values measured.

Compound	half-life at 60 µM ([1]; mouse, plasma)	half-life at 60 µM ([2]; human, plasma)	IC50 [3]	also measured
CN=C(N)NCCC[C@H](NC(=O)[C@H](Cc1ccccc1)NC(=O)[C@@H](Cc1ccccc1)NC(=O)[C@H](CO)NC(=O)[C@H](Cc1ccccc1)NC(=O)CNC(=O)[C@@H]1C[C@@H](O)CN1C(=O)[C@@H]1CCCN1C(=O)[C@H](CCCNC(=N)N)NC(=O)[C@H](N)CCCCNC(=NCC(F)(F)F)NCC(F)(F)F)C(=O)O [Compound 1, D-hArg(CH₂CF₃)₂-Arg-Pro-Hyp-Gly-Phe-Ser-D-Phe-Phe-Arg(Me)]	> 2 h	> 2 h		
CN=C(N)NCCC[C@H](NC(=O)[C@@H]1CCCN1C(=O)[C@H]1Cc2ccccc2CN1C(=O)[C@H](CO)NC(=O)[C@H](Cc1ccccc1)NC(=O)CNC(=O)[C@@H]1C[C@@H](O)CN1C(=O)[C@@H]1CCCN1C(=O)[C@H](CCCNC(N)=NC)NC(=O)[C@H](N)CCCCNC(=NCC(F)(F)F)NCC(F)(F)F)C(=O)O [Compound 21, D-hArg(CH₂CF₃)₂-Arg(Me)-Pro-Hyp-Gly-Phe-Ser-D-Tic-Pro-Arg(Me)] (H-[d(hArg)(Nω,Nω'-(CH2CF3)2)][Arg(Me)]P[Hyp]GFS[dTic]P[Arg(Me)]-OH)			2.2 nM	
CN=C(N)NCCC[C@H](NC(=O)[C@@H]1C[C@@H]2CCCC[C@@H]2N1C(=O)[C@H]1Cc2ccccc2CN1C(=O)[C@H](CO)NC(=O)[C@H](Cc1cccs1)NC(=O)CNC(=O)[C@@H]1C[C@@H](O)CN1C(=O)[C@@H]1CCCN1C(=O)[C@H](CCCNC(N)=NC)NC(=O)[C@H](N)CCCCNC(=NCC(F)(F)F)NCC(F)(F)F)C(=O)O [Compound 22, D-hArg(CH₂CF₃)₂-Arg(Me)-Pro-Hyp-Gly-Thi-Ser-D-Tic-Oic-Arg(Me)]	> 2 h	> 2 h	0.05 nM	
N=C(N)NCCC[C@H](NC(=O)[C@@H]1CCCN1C(=O)[C@H]1Cc2ccccc2CN1C(=O)[C@H](CO)NC(=O)[C@H](Cc1cccs1)NC(=O)CNC(=O)[C@@H]1C[C@@H](O)CN1C(=O)[C@@H]1CCCN1C(=O)[C@H](CCCNC(=N)N)NC(=O)[C@H](N)CCCCNC(=NCC(F)(F)F)NCC(F)(F)F)C(=O)O [Compound 75, D-hArg(CH₂CF₃)₂-Arg-Pro-Hyp-Gly-Thi-Ser-D-Tic-Pro-Arg] (H-[d(hArg)(Nω,Nω'-(CH2CF3)2)]RP[Hyp]G[2Thi]S[dTic]PR-OH)			1 nM	
CN=C(N)NCCC[C@H](NC(=O)[C@H](Cc1ccc(OC)cc1)NC(=O)[C@@H](Cc1ccccc1)NC(=O)[C@H](CO)NC(=O)[C@H](Cc1ccccc1)NC(=O)CNC(=O)[C@@H]1C[C@@H](O)CN1C(=O)[C@@H]1CCCN1C(=O)[C@H](CCCNC(=N)N)NC(=O)[C@H](N)CCCCNC(=NCC(F)(F)F)NCC(F)(F)F)C(=O)O [Compound 4, D-hArg(CH₂CF₃)₂-Arg-Pro-Hyp-Gly-Phe-Ser-D-Phe-Tyr(Me)-Arg(Me)] (H-[d(hArg)(Nω,Nω'-(CH2CF3)2)]RP[Hyp]GFS[dF]Y(Me)[Arg(Me)]-OH)				protection against bradykinin-induced hypotension (drop in blood pressure) [4]: reduced or prevented the drop in blood pressure
RPPGFSPFR [bradykinin]				half-life in the systemic circulation [5]: less than 30 seconds; half-life at 60 µM [1]: < 0.0833 h; half-life at 60 µM ([1]; rat, plasma): < 0.0833 h; half-life at 60 µM [2]: < 0.0833 h
CN=C(NC)NCCC[C@H](NC(=O)[C@@H]1C[C@@H]2CCCC[C@@H]2N1C(=O)[C@H]1Cc2ccccc2CN1C(=O)[C@H](CO)NC(=O)[C@H](Cc1ccccc1)NC(=O)CNC(=O)[C@@H]1C[C@@H](O)CN1C(=O)[C@@H]1CCCN1C(=O)[C@H](CCCNC(=NC)NC)NC(=O)[C@H](N)CCCCNC(=NCC(F)(F)F)NCC(F)(F)F)C(=O)O [Compound 89, D-hArg(CH₂CF₃)₂-Arg(Me₂)-Pro-Hyp-Gly-Phe-Ser-D-Tic-Oic-Arg(Me₂)] (H-[d(hArg)(Nω,Nω'-(CH2CF3)2)][Arg(Me2s)]P[Hyp]GFS[dTic][Oic][Arg(Me2s)]-OH)			0.07 nM	EC50 (histamine release) [6]: 312 µg/mL (≈ 204 µM)
CN=C(N)NCCC[C@H](NC(=O)[C@@H]1C[C@@H]2CCCC[C@@H]2N1C(=O)[C@H]1Cc2ccccc2CN1C(=O)[C@H](CO)NC(=O)[C@H](Cc1ccccc1)NC(=O)CNC(=O)[C@@H]1C[C@@H](O)CN1C(=O)[C@@H]1CCCN1C(=O)[C@H](CCCNC(N)=NC)NC(=O)[C@H](N)CCCCNC(=NCC(F)(F)F)NCC(F)(F)F)C(=O)O [Compound 91, D-hArg(CH₂CF₃)₂-Arg(Me)-Pro-Hyp-Gly-Phe-Ser-D-Tic-Oic-Arg(Me)] (H-[d(hArg)(Nω,Nω'-(CH2CF3)2)][Arg(Me)]P[Hyp]GFS[dTic][Oic][Arg(Me)]-OH)	> 2 h	> 2 h	0.05 nM	
CN=C(NC)NCCC[C@H](NC(=O)[C@@H]1C[C@@H]2CCCC[C@@H]2N1C(=O)[C@H]1Cc2ccccc2CN1C(=O)[C@H](CO)NC(=O)[C@H](Cc1cccs1)NC(=O)CNC(=O)[C@@H]1C[C@@H](O)CN1C(=O)[C@@H]1CCCN1C(=O)[C@H](CCCNC(=NC)NC)NC(=O)[C@H](N)CCCCNC(=NCC(F)(F)F)NCC(F)(F)F)C(=O)O [Compound 81, D-hArg(CH₂CF₃)₂-Arg(Me₂)-Pro-Hyp-Gly-Thi-Ser-D-Tic-Oic-Arg(Me₂)]			0.15 nM	
CN=C(N)NCCC[C@H](NC(=O)[C@H](Cc1ccc(OC)cc1)NC(=O)[C@@H](Cc1ccccc1)NC(=O)[C@H](CO)NC(=O)[C@H](Cc1ccccc1)NC(=O)CNC(=O)[C@@H]1C[C@@H](O)CN1C(=O)[C@@H]1CCCN1C(=O)[C@H](CCCNC(=N)N)NC(=O)[C@H](N)CCCNC(=N)N)C(=O)O [Compound 74, D-Arg-Arg-Pro-Hyp-Gly-Phe-Ser-D-Phe-Tyr(Me)-Arg(Me)] (H-[dR]RP[Hyp]GFS[dF]Y(Me)[Arg(Me)]-OH)	> 2 h	> 2 h	30 nM	
CCN=C(N)NCCC[C@H](NC(=O)[C@H](N)CCCCNC(=NCC(F)(F)F)NCC(F)(F)F)C(=O)N1CCC[C@H]1C(=O)N1C[C@H](O)C[C@H]1C(=O)NCC(=O)N[C@@H](Cc1ccccc1)C(=O)N[C@@H](CO)C(=O)N1Cc2ccccc2C[C@@H]1C(=O)N1[C@H](C(=O)N[C@@H](CCCNC(=NC)NC)C(=O)O)C[C@@H]2CCCC[C@@H]21 [Compound 90, D-hArg(CH₂CF₃)₂-Arg(Et)-Pro-Hyp-Gly-Phe-Ser-D-Tic-Oic-Arg(Me₂)] (H-[d(hArg)(Nω,Nω'-(CH2CF3)2)][Arg(Et)]P[Hyp]GFS[dTic][Oic][Arg(Me2s)]-OH)			0.04 nM	EC50 (histamine release) [6]: 216 µg/mL (≈ 141 µM)
